Drawing on PubChem BioAssay AID602296 (Broad Institute, 2012), this text covers AC40 for 38 compounds.

Records with an inconclusive call do not appear. The source made the active and inactive calls.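 The calls were made as follows: active = fitted activation curve crossing 40% at a concentration no higher than the sample's top valid tested dose; inconclusive = flat fitted curve at 30% to 70% activation, or poor curve fit; inactive = signal decrease, flat curve within 30%, or the rest.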

This experiment relates to NIH3T3-HGL HSF-1 response element luciferase, 48 h. Kind of experiment: HSF-1 reporter activators over prolonged exposure, confirmation, cell-based, mouse, luciferase, cherry-pick, dose (AID 602296).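 Also: test compounds applied by themselves with no MG132 co-treatment.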

`COc1cc(/C=N/NC(=S)NC2CC3C=CC2C3)cc(OC)c1OC` (stereo not drawn): the AC40 is > 26 µM (inactive). `Cc1csc2nc(CCNS(=O)(=O)c3cccs3)cn12`: the AC40 was 2.76 µM.

`CCOC(=O)C1CCN(C(=O)c2ccc3c(Cl)c4c(nc3c2)CCCC4)CC1`: the AC40 was > 26 µM (inactive).

For `O=C(CSc1nnc(-c2c[nH]c3ccccc23)n1-c1ccc(F)cc1)NCc1ccco1`, the AC40 is 13.5 µM. The figure for `CC[C@@]1(O)C(=O)OCc2c1cc1n(c2=O)Cc2cc3c(N)cccc3nc2-1` is 15.9 µM. The figure for `CCOC(=O)c1nnsc1Nc1ccc(C)c(C)c1` is 5.31 µM; for `Cc1nn(C(C)C(=O)NCCCN2CCCCC2C)c(=O)c2c1sc1ccccc12` (stereo not drawn) it is > 26 µM (inactive). The figure for `O=C(NCc1ccc(N2CCCC2=O)cc1)Nc1ccccc1` is > 26 µM (inactive); for `Cc1[nH]nc2c1C(c1cc(Br)cs1)C(C#N)=C(N)O2` (stereo not drawn) it is 12 µM; for `CC(C)[C@H](NC(=O)OC(C)(C)C)c1nnc(SCC(=O)Nc2ccc(Br)cc2)o1` it is > 26 µM (inactive). For the compound `CCCC12CN3CC(C)(CN(C1)C3c1ccc3c(c1)OCO3)C2=O` (stereo not drawn), the AC40 was > 26 µM (inactive). With `CCC(Sc1nc2cc3c(cc2c(=O)n1Cc1ccco1)OCO3)C(=O)NCCOC` (stereo not drawn), the AC40 is > 26 µM (inactive). The figure for `Cc1ccc(C(=O)Cn2nc(C(=O)O)c3ccccc3c2=O)cc1C` is > 26 µM (inactive); for `Cc1ccc2cccc(NC(=O)C(F)(F)F)c2n1` it is > 26 µM (inactive). The figure for `COc1cccc(NC(=S)NC(=O)c2c(Cl)c(C)nn2C)c1` is 2.51 µM.

As to `Cn1c(CO)cnc1SCC(=O)c1ccc(Cl)cc1`, the AC40 is 8.6 µM. Under `CCC(C)n1c(SCC(=O)NC(=O)Nc2ccc3c(c2)OCCO3)nc2ccccc2c1=O` (stereo not drawn) stands > 26 µM (inactive); under `CCc1nc(SCC(=O)c2ccc(Cl)s2)c2oc3ccccc3c2n1`, 18.6 µM. The figure for `CCOC(=O)/C=C/C(=O)N1CCc2ccccc21` is > 26 µM (inactive); for `COc1cc(CC(=O)N(c2ccccc2)c2nc(C)cs2)cc(OC)c1OC` it is > 26 µM (inactive); for `Nc1cc(-c2ccco2)no1` it is > 26 µM (inactive).

Consider `CCOC(=O)c1c(-c2ccc(C)cc2)cn2ccccc12`, for which the AC40 is > 26 µM (inactive).

On to `CCOC(=O)/C=C(\C)Nc1cc(C)nn1-c1ccccc1`, for which the AC40 was 17.2 µM. Under `COC(=O)Cn1c(=O)c2c(nc3n2CC(C)CN3CCc2ccccc2)n(C)c1=O` (stereo not drawn) stands > 26 µM (inactive).

As for `CC(Oc1ccc(F)cc1Br)c1nc2ccccc2c(=O)[nH]1` (stereo not drawn), the AC40 was 17.3 µM. With `S=c1[nH]cc(Cc2ccccc2)s1`, the AC40 was 23.4 µM. The figure for `Cn1c(Cl)cnc1C1CC(=O)c2cc(Cl)ccc2O1` (stereo not drawn) is > 26 µM (inactive); for `COc1cccc(CN2CC(C(=O)NCc3ccc(C)o3)CCC2=O)c1` (stereo not drawn) it is > 26 µM (inactive).

For `COC(=O)c1ccc(OC(=O)CCN2C(=O)C3CCCCC3C2=O)cc1` (stereo not drawn), the AC40 is > 26 µM (inactive). For `O=c1c2ccccc2[nH]c(=S)n1CCC1=CCCCC1`, the AC40 is 11.3 µM. The figure for `CCCc1nc(SCC(=O)Nc2cc(C)on2)c2ccccc2n1` is > 26 µM (inactive); for `N#C/C(=C(\O)C(F)(F)F)c1nnc2n1CCCCC2` it is > 26 µM (inactive); for `Cn1cc(C(=O)N/N=C/c2cc(Br)cs2)c2ccccc21` it is 11.3 µM. Turning to `C/C(=C\C(=O)Nc1cscc1C)C(=O)O`, the AC40 is > 26 µM (inactive). Consider `Nc1ccc(Sc2cnn(-c3ccccc3)c(=O)c2Cl)cc1`, for which the AC40 was 8.39 µM. The figure for `[O-]/[N+](=C\c1ccc(OC(F)F)cc1)c1ccccc1` is > 26 µM (inactive); for `COC(=O)c1cnc(N2CCCN(S(=O)(=O)c3ccc(C(F)(F)F)cc3)CC2)nc1C(F)(F)F` it is > 26 µM (inactive). The figure for `CC(C)(C)c1cc(NC(=O)CCSc2nnc3ccccn23)cc(C(C)(C)C)c1` is > 26 µM (inactive).
